Molecular target: T1, USP7 (Homo sapiens, UniProt Q93009)
T1 construct: The USP7 construct was PCR amplified and cloned into a pFLAG-CMV-6a vector (Sigma-Aldrich) with an N-terminal FLAG tag; made in house; host or cells: HEK293T
Assay: USP7 biochemical IC50 assay (fluorescence polarisation, TAMRA labelled peptide linked to ubiquitin via an iso-peptide bond)
Conditions: 30 min pre-incubation of enzyme and compound, read after 2 hr incubation at room temperature, read-out: IC50 range
Protocol: In Vitro USP7 Inhibition Assay
Expression and Purification of USP7
The USP7 construct was PCR amplified and cloned into a pFLAG-CMV-6a vector (Sigma-Aldrich) with an N-terminal FLAG tag. HEK293T cells were transfected with FLAG-USP7 using TransIT-LT1 transfection reagent (Mirus) according to the manufacturer's instructions. Cells were harvested 40 hours after transfection. […] The resin was washed two times with low salt buffer plus protease inhibitors (complete mini, Roche) and phosphatase inhibitors (PhosSTOP mini, Roche) and one time with high salt buffer (20 mM Tris, pH 7.5, 500 mM NaCl, 0.5 mM EDTA, 5 mM beta-mercaptoethanol, protease inhibitors (complete mini, Roche) and phosphatase inhibitors (PhosSTOP mini, Roche). To elute the bound USP7, elution buffer (10 mM Tris, pH 7.5, 150 mM NaCl, 0.5 mM EDTA, 10% glycerol, 0.5% NP40, 5 mM beta-mercaptoethanol, 0.15 mg/ml 3×FLAG peptide (Sigma-Aldrich)) was added to the resin and incubated at 4° C. for 2.5 hours rotating. The resin was centrifuged at 4000 rpm for 30 seconds, and the supernatant containing purified FLAG-USP7 was removed and stored at −80° C.
USP7 Biochemical IC50 Assay
A typical 8-point dilution series would be 100, 30, 10, 3, 1, 0.3, 0.1, 0.03 μM final. […] Either 1 μl of 50% DMSO or diluted compound was added to the plate. USP7 was diluted in reaction buffer (20 mM Tris, pH 7.5, 100 mM NaCl, 0.05% Tween 20, 0.5 mg/ml BSA, 5 mM—beta mercaptoethanol) to the equivalent of 0.0025 μl/well and 10 μl of diluted USP7 was added to the compound. Enzyme and compound were incubated for 30 min at room temp. Reactions were initiated by the addition of 50 nM of TAMRA labelled peptide linked to ubiquitin via an iso-peptide bond as fluorescence polarisation substrate. Reactions were read immediately after addition of substrate and following a 2 hr incubation at room temperature. Readings were performed on a Pherastar Plus (BMG Labtech). λ Excitation 540 nm; λ Emission 590 nm.

T1 sequence (Q93009 whole entry): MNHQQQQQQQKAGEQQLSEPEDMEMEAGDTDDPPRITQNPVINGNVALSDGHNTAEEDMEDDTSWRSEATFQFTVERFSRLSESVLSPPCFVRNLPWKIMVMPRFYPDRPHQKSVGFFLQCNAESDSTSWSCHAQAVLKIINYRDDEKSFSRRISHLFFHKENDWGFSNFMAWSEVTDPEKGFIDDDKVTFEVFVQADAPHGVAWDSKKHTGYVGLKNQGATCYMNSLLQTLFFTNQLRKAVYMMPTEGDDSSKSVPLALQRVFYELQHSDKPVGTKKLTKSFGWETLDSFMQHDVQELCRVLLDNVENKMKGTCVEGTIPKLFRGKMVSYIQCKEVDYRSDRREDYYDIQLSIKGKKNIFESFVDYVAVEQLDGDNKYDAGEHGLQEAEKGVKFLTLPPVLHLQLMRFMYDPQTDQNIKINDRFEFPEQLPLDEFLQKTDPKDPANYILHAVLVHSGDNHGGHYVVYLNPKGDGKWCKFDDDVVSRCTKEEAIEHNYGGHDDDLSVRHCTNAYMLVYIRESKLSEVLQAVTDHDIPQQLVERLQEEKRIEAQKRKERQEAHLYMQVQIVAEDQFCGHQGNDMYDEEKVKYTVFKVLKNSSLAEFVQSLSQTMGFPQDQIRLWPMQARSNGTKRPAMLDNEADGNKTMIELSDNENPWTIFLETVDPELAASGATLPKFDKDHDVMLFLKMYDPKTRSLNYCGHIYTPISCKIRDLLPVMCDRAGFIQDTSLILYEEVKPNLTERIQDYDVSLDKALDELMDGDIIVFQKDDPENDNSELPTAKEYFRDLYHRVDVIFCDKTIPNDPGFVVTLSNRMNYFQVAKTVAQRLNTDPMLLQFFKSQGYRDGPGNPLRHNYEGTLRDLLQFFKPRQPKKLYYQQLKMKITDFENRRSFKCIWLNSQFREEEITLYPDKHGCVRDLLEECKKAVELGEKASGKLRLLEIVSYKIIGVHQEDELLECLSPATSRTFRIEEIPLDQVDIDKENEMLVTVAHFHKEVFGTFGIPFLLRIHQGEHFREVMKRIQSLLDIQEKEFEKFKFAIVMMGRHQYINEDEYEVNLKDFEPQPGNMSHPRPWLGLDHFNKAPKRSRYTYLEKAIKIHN

Row | Structure (SMILES) | IC50
1 | CS(=O)(=O)CCc1cc2c(c(-c3ccccc3)c1)CN(C#N)C2 [Example 252, 6-(2-(methylsulfonyl)ethyl)-4-phenylisoindoline-2-carbonitrile] | 1000 to 10000 nM
2 | N#CN1Cc2cccc(-c3ccnc(C(=O)NCc4ccccc4)c3)c2C1 [Example 79, N-benzyl-4-(2-cyanoisoindolin-4-yl)picolinamide] | 1000 to 10000 nM
3 | N#CN1Cc2nc(N[C@H]3CC[C@H](O)CC3)nc(N3CCc4ccccc4C3)c2C1 [Example 199] | 1000 to 10000 nM
4 | N#CN1Cc2ncnc(N3CCc4ccccc4C3)c2C1 [Example 183, 4-(3,4-dihydroisoquinolin-2(1H)-yl)-5,7-dihydro-6H-pyrrolo[3,4-c]pyrimidine-6-carbonitrile] | 1000 to 10000 nM
5 | CNS(=O)(=O)c1ccccc1-c1cccc2c1CN(C#N)C2 [Example 160, 2-(2-cyanoisoindolin-4-yl)-N-methylbenzenesulfonamide] | 1000 to 10000 nM
6 | COc1cccc(-c2cccc3c2CN(C#N)C3)c1C#N [Example 170, 4-(2-cyano-3-methoxyphenyl)isoindoline-2-carbonitrile] | 1000 to 10000 nM
7 | CC(=O)Nc1nc2c(c(-c3ccccc3)n1)CN(C#N)C2 [Example 104, N-(6-cyano-4-phenyl-6,7-dihydro-5H-pyrrolo[3,4-c]pyrimidin-2-yl)acetamide] | 1000 to 10000 nM
8 | CNC(=O)c1cccc(-c2cc(NC(=O)[C@@H]3CCCN(C)C3)cc3c2CN(C#N)C3)c1 [Example 30] | 1000 to 10000 nM
9 | N#CN1Cc2cccc(NC(=O)c3ccc(CNC(=O)OCc4ccccc4)cc3)c2C1 [Example 91, benzyl (4-((2-cyanoisoindolin-4-yl)carbamoyl)benzyl carbamate] | 1000 to 10000 nM
10 | N#Cc1ccc(-c2cc(CCc3cccnc3)cc3c2CN(C#N)C3)cc1 [Example 256, 4-(4-cyanophenyl)-6-(2-(pyridin-3-yl)ethyl)isoindoline-2-carbonitrile] | 1000 to 10000 nM
11 | N#CN1Cc2cc(NC(=O)C3CN(Cc4ccccc4)CCO3)cc(-c3ccccc3)c2C1 (stereo not drawn) [Example 40, 4-benzyl-N-(2-cyano-7-phenylisoindolin-5-yl)morpholine-2-carboxamide] | 1000 to 10000 nM
12 | N#CN1Cc2cc(NC(=O)C3CCOCC3)cc(-c3ccccc3)c2C1 [Example 50, N-(2-cyano-7-phenylisoindolin-5-yl)tetrahydro-2H-pyran-4-carboxamide] | < 1000 nM
13 | COCCc1cc2c(c(-c3ccc(C#N)cc3)c1)CN(C#N)C2 [Example 254, 4-(4-cyanophenyl)-6-(2-methoxyethyl)isoindoline-2-carbonitrile] | 1000 to 10000 nM
14 | COc1cccc(-c2cc(NC(=O)[C@@H]3CCCN(C)C3)cc3c2CN(C#N)C3)c1 [Example 31, (R)-N-(2-cyano-7-(3-methoxyphenyl)isoindolin-5-yl)-1-methylpiperidine-3-carboxamide] | 1000 to 10000 nM
15 | Cc1ccccc1-c1cccc2c1CN(C#N)C2 [Example 12, 4-(o-tolyl)isoindoline-2-carbonitrile] | 1000 to 10000 nM
16 | Cc1ccccc1OC1CCN(c2ncnc3c2CN(C#N)C3)CC1 [Example 184, 4-(4-(o-tolyloxy)piperidin-1-yl)-5,7-dihydro-6H-pyrrolo[3,4-d]pyrimidine-6-carbonitrile] | 1000 to 10000 nM
17 | N#CN1Cc2cccc(-c3cccc4c3NC(=O)C4)c2C1 [Example 165, 4-(2-oxoindolin-7-yl)isoindoline-2-carbonitrile] | 1000 to 10000 nM
18 | CC1c2cccc(-c3ccc(Cl)cc3C(N)=O)c2CN1C#N (single isomer, unassigned) [Example 258, 5-chloro-2-(2-cyano-1-methylisoindolin-4-yl)benzamide] | 10000 to 30000 nM
19 | N#CN1Cc2nc(NCCO)nc(-c3cccc(N4CCCC4=O)c3)c2C1 [Example 291, 2-((2-hydroxyethyl)amino)-4-(3-(2-oxopyrrolidin-1-yl)phenyl)-5,7-dihydro-6H-pyrrolo[3,4-d]pyrimidine-6-carbonitrile] | < 1000 nM
20 | CN1CC(C(=O)Nc2cc3c(c(-c4ccc(C#N)cc4)c2)CN(C#N)C3)CC1=O (stereo not drawn) [Example 265, N-(2-cyano-7-(4-cyanophenyl)isoindolin-5-yl)-1-methyl-5-oxopyrrolidine-3-carboxamide] | 1000 to 10000 nM

Row | Structure (SMILES) | IC50
21 | COc1cc2cc(C(=O)Nc3cccc4c3CN(C#N)C4)[nH]c2cn1 [Example 85, N-(2-cyanoisoindolin-4-yl)-5-methoxy-1H-pyrrolo[2,3-c]pyridine-2-carboxamide] | 1000 to 10000 nM
22 | Cn1cc(Nc2cc3c(c(-c4ccccc4)c2)CN(C#N)C3)cn1 [Example 5, 6-((1-methyl-1H-pyrazol-4-yl)amino)-4-phenylisoindoline-2-carbonitrile] | < 1000 nM
23 | N#CN1Cc2cc(NC(=O)C3CNC(=O)C3)cc(-c3ccccc3)c2C1 (stereo not drawn) [Example 42, N-(2-cyano-7-phenylisoindolin-5-yl)-5-oxopyrrolidine-3-carboxamide] | < 1000 nM
24 | CN1CCC[C@@H](C(=O)Nc2cc3c(c(-c4cccc(F)c4)c2)CN(C#N)C3)C1 [Example 25, (R)-N-(2-cyano-7-(3-fluorophenyl)isoindolin-5-yl)-1-methylpiperidine-3-carboxamide] | < 1000 nM
25 | COc1cccc(OC2CCN(c3ncnc4c3CN(C#N)C4)CC2)c1 [Example 102, 4-(4-(3-methoxyphenoxy)piperidin-1-yl)-5,7-dihydro-6H-pyrrolo[3,4-d]pyrimidine-6-carbonitrile] | 1000 to 10000 nM
26 | N#CN1Cc2nc(NCCCn3ccnc3)nc(-c3ccccc3)c2C1 [Example 122, 2-((3-(1H-imidazol-1-yl)propyl)amino)-4-phenyl-5,7-dihydro-6H-pyrrolo[3,4-d]pyrimidine-6-carbonitrile] | 1000 to 10000 nM
27 | COc1ccc(-c2nc3c(c(N4CCCC4)n2)CN(C#N)C3)cc1 [Example 130, 2-(4-methoxyphenyl)-4-(pyrrolidin-1-yl)-5,7-dihydro-6H-pyrrolo[3,4-c]pyrimidine-6-carbonitrile] | 10000 to 30000 nM
28 | N#Cc1cc(F)c(-c2cccc3c2CN(C#N)C3)c(C(N)=O)c1 [Example 301, 5-cyano-2-(2-cyanoisoindolin-4-yl)-3-fluorobenzamide] | 1000 to 10000 nM
29 | CN1CC(C(=O)Nc2cc3c(c(-c4ccccc4)c2)CN(C#N)C3)CC1=O (stereo not drawn) [Example 52, N-(2-cyano-7-phenylisoindolin-5-yl)-1-methyl-5-oxopyrrolidine-3-carboxamide] | < 1000 nM
30 | CN1CCC(C(=O)Nc2ccc3c(c2)CN(C#N)C3)C1 (stereo not drawn) [Example 94, N-(2-cyanoisoindolin-5-yl)-1-methylpyrrolidine-3-carboxamide] | 1000 to 10000 nM
31 | CN1CCC(CNc2nc3c(c(-c4ccccc4)n2)CN(C#N)C3)C1 (stereo not drawn) [Example 127, 2-(((1-methylpyrrolidin-3-yl)methyl)amino)-4-phenyl-5,7-dihydro-6H-pyrrolo[3,4-d]pyrimidine-6-carbonitrile] | 1000 to 10000 nM
32 | CN(C)C(=O)NCc1cc2c(c(-c3ccc(C#N)cc3)c1)CN(C#N)C2 [Example 223, 3-((2-cyano-7-(4-cyanophenyl)isoindolin-5-yl)methyl)-1,1-dimethylurea] | 1000 to 10000 nM
33 | CN1CCOC(CN(C)c2nc3c(c(N4CCc5ccccc5C4)n2)CN(C#N)C3)C1 (stereo not drawn) [Example 203, 4-(3,4-dihydroisoquinolin-2(1H)-yl)-2-(methyl((4-methylmorpholin-2-yl)methyl)amino)-5,7-dihydro-6H-pyrrolo[3,4-d]pyrimidine-6-carbonitrile] | 1000 to 10000 nM
34 | CN1CCC[C@@H](C(=O)Nc2cc3c(c(-c4cccc(Cl)c4)c2)CN(C#N)C3)C1 [Example 34, (R)-N-(7-(3-chlorophenyl)-2-cyanoisoindolin-5-yl)-1-methylpiperidine-3-carboxamide] | 1000 to 10000 nM
35 | N#CN1Cc2cccc(-c3ccc(F)cc3C(N)=O)c2C1 [Example 158, 2-(2-cyanoisoindolin-4-yl)-5-fluorobenzamide] | 1000 to 10000 nM
36 | C[C@@H](O)c1ccccc1-c1cccc2c1CN(C#N)C2 [Example 70, (R)-4-(2-(1-hydroxyethyl)phenyl)isoindoline-2-carbonitrile] | 1000 to 10000 nM
37 | CN(C)C(=O)c1cc2c(c(-c3ccc(C#N)cc3)c1)CN(C#N)C2 [Example 232, 2-cyano-7-(4-cyanophenyl)-N,N-dimethylisoindoline-5-carboxamide] | 1000 to 10000 nM
38 | CC(=O)Nc1nc2c(c(N3CCc4ccccc4C3)n1)CN(C#N)C2 [Example 128, N-(6-cyano-4-(3,4-dihydroisoquinolin-2(1H)-yl)-6,7-dihydro-5H-pyrrolo[3,4-d]pyrimidin-2-yl)acetamide] | 1000 to 10000 nM
39 | CC(C)OC(=O)NCc1cc2c(c(-c3ccc(C#N)cc3)c1)CN(C#N)C2 [Example 224, isopropyl ((2-cyano-7-(4-cyanophenyl)isoindolin-5-yl)methyl)carbamate] | 1000 to 10000 nM

Source: patent US10683269B2 (MISSION THERAPEUTICS LIMITED, priority 2016, dated 2020)
